Measured values published in patent US9133115B2 (ACHILLION PHARMACEUTICALS, INC., priority 2008, dated 2015).
pEC50: −log10 of the molar value.

The compounds below were run on HCV replicon (assay: HCV replicon replication assay (NPT ELISA) in Huh-7 replicon-containing cells). Details: Hepatitis C virus, 72 h; HCV replicon in Huh-7 cells, three days incubation; read-out: EC50.
Assay type: cell-based
Procedure, shortened: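 Huh-7 cells carrying a bicistronic HCV replicon (HCV-IRES-neo, EMCV-IRES-driven NS3–NS5B, 3′-NTR) were seeded at 6000-7500 cells/well, grown 24 h to 60-70% confluence, then treated with graded compound concentrations. Replication was read as NPT level by capture ELISA (rabbit anti-NPTII, Eu-N1 secondary); interferon alpha served as positive control.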

SMILES	pEC50
C=C[C@@H]1C[C@]1(NC(=O)[C@@H]1C[C@@H](Oc2cc(-c3csc(NC(C)C)n3)nc3c(C)c(OC)ccc23)CN1C(=O)[C@@H](CC(=O)N1CCC(C(F)(F)F)CC1)C(C)(C)C)C(=O)NS(=O)(=O)C1CC1 [Compound 238, (2S,4R)-1-((S)-2-tert-butyl-4-oxo-4-(4-(trifluoro-methyl)piperidin-1-yl)butanoyl)-N-((2S)-1-(cyclopropyl-sulfonylcarbamoyl)-2-vinylcyclopropyl)-4-(2-(2-(isopropyl-amino)thiazol-4-yl)-7-methoxy-8-methylquinolin-4-yloxy)pyrrolidine-2-carboxamide]	> 6.00
C=C[C@@H]1C[C@]1(NC(=O)[C@@H]1C[C@@H](Oc2cc(-c3ccccc3)nc3c(C)c(OC)ccc23)CN1C(=O)[C@@H](CC(=O)N1CCCCC1)C(C)(C)C)C(=O)NS(=O)(=O)C1CC1 [Compound 239]	> 6.00
C=C[C@@H]1C[C@]1(NC(=O)[C@@H]1C[C@@H](Oc2cc(-c3ccccc3)nc3c(C)c(OC)ccc23)CN1C(=O)[C@@H](CC(=O)N1CCC(C(F)(F)F)CC1)C(C)(C)C)C(=O)NS(=O)(=O)C1CC1 [Compound 240, (2S,4R)-1-((S)-2-tert-butyl-4-oxo-4-(4-(trifluoro-methyl)piperidin-1-yl)butanoyl)-N-((1R)-1-(cyclopropyl-sulfonylcarbamoyl)-2-vinylcyclopropyl)-4-(7-methoxy-8-methyl-2-phenylquinolin-4-yloxy)pyrrolidine-2-carboxamide]	> 6.00
C=C[C@@H]1C[C@]1(NC(=O)[C@@H]1C[C@@H](Oc2cc(-c3ccccc3)nc3c(C)c(OC)ccc23)CN1C(=O)[C@@H](CC(=O)N1CCCC(F)(F)C1)C(C)(C)C)C(=O)NS(=O)(=O)C1CC1 [Compound 241, (2S,4R)-1-((S)-2-tert-butyl-4-(3,3-difluoropiperidin-1-yl)-4-oxobutanoyl)-N-((2S)-1-(cyclopropyl-sulfonylcarbamoyl)-2-vinylcyclopropyl)-4-(7-methoxy-8-methyl-2-phenylquinolin-4-yloxy)pyrrolidine-2-carboxamide]	> 6.00
C=C[C@@H]1C[C@]1(NC(=O)[C@@H]1C[C@@H](Oc2cc(-c3ccccn3)nc3c4c(ccc23)CCC4)CN1C(=O)[C@@H](CC(=O)N1CCCCC1)C(C)(C)C)C(=O)NS(=O)(=O)C1CC1 [Compound 242, (2S,4R)-1-((S)-2-tert-butyl-4-oxo-4-(piperidin-1-yl)butanoyl)-N-((2S)-1-(cyclopropyl-sulfonylcarbamoyl)-2-vinylcyclopropyl)-4-(2-(pyridin-2-yl)-8,9-dihydro-7H-cyclopenta[h]quino-lin-4-yloxy)pyrrolidine-2-carboxamide]	> 6.00
C=C[C@@H]1C[C@]1(NC(=O)[C@@H]1C[C@@H](Oc2nc(-c3ccccn3)cc3c(Cl)c(OC)ccc23)CN1C(=O)[C@@H](CC(=O)N1CCCCC1)C(C)(C)C)C(=O)NS(=O)(=O)C1CC1 [Compound 243, (2S,4R)-1-((S)-2-tert-butyl-4-oxo-4-(piperidin-1-yl)butanoyl)-4-(5-chloro-6-methoxy-3-(pyridin-2-yl)isoquinolin-1-yloxy)-N-((2S)-1-(cyclopropyl-sulfonylcarbamoyl)-2-vinylcyclo-propyl)pyrrolidine-2-carboxamide]	> 6.00
C=C[C@@H]1C[C@]1(NC(=O)[C@@H]1C[C@@H](Oc2nc(-c3ccccn3)cc3c(Cl)c(OC)ccc23)CN1C(=O)[C@@H](CC(=O)N1CCCC(F)(F)C1)C(C)(C)C)C(=O)NS(=O)(=O)C1CC1 [Compound 244, (2S,4R)-1-((S)-2-tert-butyl-4-(3,3-difluoropiperidin-1-yl)-4-oxobutanoyl)-4-(5-chloro-6-methoxy-3-(pyridin-2-yl)isoquinolin-1-yloxy)-N-((2S)-1-(cyclopropyl-sulfonylcarbamoyl)-2-vinylcyclo-propyl)pyrrolidine-2-carboxamide]	> 6.00
C=C[C@@H]1C[C@]1(NC(=O)[C@@H]1C[C@@H](Oc2cc(-c3ccccn3)nc3c(C)c(OC)ccc23)CN1C(=O)[C@@H](CC(=O)N1CCCC(F)(F)C1)C(C)(C)C)C(=O)NS(=O)(=O)C1CC1 [Compound 246, (2S,4R)-1-((S)-2-tert-butyl-4-(3,3-difluoropiperidin-1-yl)-4-oxobutanoyl)-N-((2S)-1-(cyclopropyl-sulfonylcarbamoyl)-2-vinylcyclopropyl)-4-(7-methoxy-8-methyl-2-(pyridin-2-yl)quinolin-4-yloxy)pyrrolidine-2-carboxamide]	> 6.00
C=C[C@@H]1C[C@]1(NC(=O)[C@@H]1C[C@@H](Oc2nccc3c(Cl)c(OC)ccc23)CN1C(=O)[C@@H](CC(=O)N1CCCC(F)(F)C1)C(C)(C)C)C(=O)NS(=O)(=O)C1CC1 [Compound 247, (2S,4R)-1-((S)-2-tert-butyl-4-(3,3-difluoropiperidin-1-yl)-4-oxobutanoyl)-4-(5-chloro-6-methoxyisoquinolin-1-yloxy)-N-((2S)-1-(cyclopropyl-sulfonylcarbamoyl)-2-vinylcyclo-propyl)pyrrolidine-2-carboxamide]	> 6.00
C=C[C@@H]1C[C@]1(NC(=O)[C@@H]1C[C@@H](Oc2cc(-c3nc(C(C)C)cs3)nc3c(C)c(OC)ccc23)CN1C(=O)[C@@H](CC(=O)N1CCCC(F)(F)C1)C(C)(C)C)C(=O)NS(=O)(=O)C1CC1 [Compound 248, (2S,4R)-1-((S)-2-tert-butyl-4-(3,3-difluoropiperidin-1-yl)-4-oxobutanoyl)-N-((2S)-1-(cyclopropyl-sulfonylcarbamoyl)-2-vinylcyclopropyl)-4-(2-(4-isopropylthiazol-2-yl)-7-methoxy-8-methylquinolin-4-yloxy)pyrrolidine-2-carboxamide]	> 6.00
C=C[C@@H]1C[C@]1(NC(=O)[C@@H]1C[C@@H](Oc2cc(-c3nc(C(C)C)cs3)nc3cc(OC)ccc23)CN1C(=O)[C@@H](CC(=O)N1CCCC(F)(F)C1)C(C)(C)C)C(=O)NS(=O)(=O)C1CC1 [Compound 251, (2S,4R)-1-((S)-2-tert-butyl-4-(3,3-difluoropiperidin-1-yl)-4-oxobutanoyl)-N-((2S)-1-(cyclopropyl-sulfonylcarbamoyl)-2-vinylcyclopropyl)-4-(2-(4-isopropylthiazol-2-yl)-7-methoxyquinolin-4-yloxy)pyrrolidine-2-carboxamide]	> 6.00
C=C[C@@H]1C[C@]1(NC(=O)[C@@H]1C[C@@H](Oc2cc(-c3cccnc3)nc3c(C)c(OC)ccc23)CN1C(=O)[C@@H](CC(=O)N1CCCC(F)(F)C1)C(C)(C)C)C(=O)NS(=O)(=O)C1CC1 [Compound 252, (2S,4R)-1-((S)-2-tert-butyl-4-(3,3-difluoropiperidin-1-yl)-4-oxobutanoyl)-N-((2S)-1-(cyclopropyl-sulfonylcarbamoyl)-2-vinylcyclopropyl)-4-(7-methoxy-8-methyl-2-(pyridin-3-yl)quinolin-4-yloxy)pyrrolidine-2-carboxamide]	> 6.00
C=CC1C[C@]1(NC(=O)[C@@H]1C[C@@H](Oc2cc(-c3csc(C(C)C)n3)nc3c(C)c(OC)ccc23)CN1C(=O)[C@@H](CC(=O)N1CCCC(F)(F)C1)C(C)(C)C)C(=O)NS(=O)(=O)C1CC1 (stereo partly drawn) [Compound 254, (2S,4R)-1-((S)-2-tert-butyl-4-(3,3-difluoropiperidin-1-yl)-4-oxobutanoyl)-N-((1R)-1-(cyclopropyl-sulfonylcarbamoyl)-2-vinylcyclopropyl)-4-(2-(2-isopropylthiazol-4-yl)-7-methoxy-8-methylquinolin-4-yloxy)pyrrolidine-2-carboxamide]	> 6.00
C=C[C@@H]1C[C@]1(NC(=O)[C@@H]1C[C@@H](Oc2cc(-c3nc(C(C)C)cs3)nc3c(C)c(OC)ccc23)CN1C(=O)[C@@H](CC(=O)N1CCCCC1)C(C)(C)C)C(=O)NS(=O)(=O)C1CC1 [Compound 255, (2S,4R)-1-((S)-2-tert-butyl-4-oxo-4-(piperidin-1-yl)butanoyl)-N-((2S)-1-(cyclopropyl-sulfonylcarbamoyl)-2-vinylcyclopropyl)-4-(2-(4-isopropylthiazol-2-yl)-7-methoxy-8-methylquinolin-4-yloxy)pyrrolidine-2-carboxamide]	> 6.00
